# In patent US20250115600A1, “COVALENT MODIFIERS OF AKT1 AND USES THEREOF” (Terremoto Biosciences, Inc., priority 2022, published 2025):
# Columns and labels:
# Experiment in all cases: Live cell target engagement (NanoBRET) in HEK293 cells
# Assay type in all cases: cell-based
# AKT1 WT = AKT1 WT (Homo sapiens (Human), UniProt P31749); settings: HEK293, 2 hours at 37° C.
# AKT2 = AKT2 (Homo sapiens (Human), UniProt P31751); settings: HEK293, 2 hours at 37° C.
# AKT1 E17K = AKT1 E17K (Homo sapiens (Human), UniProt P31749, E17K); settings: for IC50: HEK293, 2 hours at 37° C.
# Sequence of AKT1 E17K (P31749 whole entry E17K): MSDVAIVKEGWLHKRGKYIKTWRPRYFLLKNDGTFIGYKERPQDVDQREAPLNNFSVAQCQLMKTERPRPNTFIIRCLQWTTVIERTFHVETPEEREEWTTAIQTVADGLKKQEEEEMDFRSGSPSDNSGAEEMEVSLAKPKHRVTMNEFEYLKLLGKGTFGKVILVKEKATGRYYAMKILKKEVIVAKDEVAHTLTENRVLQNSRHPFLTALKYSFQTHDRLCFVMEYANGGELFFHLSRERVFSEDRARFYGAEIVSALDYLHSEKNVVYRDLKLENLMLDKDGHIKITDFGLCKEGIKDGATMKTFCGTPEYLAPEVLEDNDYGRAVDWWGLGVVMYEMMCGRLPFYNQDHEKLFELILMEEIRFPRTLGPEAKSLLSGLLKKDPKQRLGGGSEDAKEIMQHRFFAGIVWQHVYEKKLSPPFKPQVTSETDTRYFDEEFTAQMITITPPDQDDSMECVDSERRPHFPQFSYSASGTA
# Sequence of AKT1 WT (P31749 whole entry): as the sequence (P31749 whole entry E17K) above, with K17E counted along it
# Sequence of AKT2 (P31751 whole entry): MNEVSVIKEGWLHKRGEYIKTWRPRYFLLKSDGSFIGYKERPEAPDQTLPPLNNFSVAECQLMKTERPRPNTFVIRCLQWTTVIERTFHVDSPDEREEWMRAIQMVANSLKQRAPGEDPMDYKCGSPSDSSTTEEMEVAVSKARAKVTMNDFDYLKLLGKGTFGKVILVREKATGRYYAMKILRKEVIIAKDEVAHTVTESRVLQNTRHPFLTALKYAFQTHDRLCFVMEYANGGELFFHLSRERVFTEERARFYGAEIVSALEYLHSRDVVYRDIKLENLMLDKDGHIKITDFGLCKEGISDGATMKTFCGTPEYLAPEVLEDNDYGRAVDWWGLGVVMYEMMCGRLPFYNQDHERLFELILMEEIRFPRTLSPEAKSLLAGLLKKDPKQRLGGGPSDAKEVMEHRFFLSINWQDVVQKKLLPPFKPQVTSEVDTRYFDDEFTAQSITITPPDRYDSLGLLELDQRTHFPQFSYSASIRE
Structure (SMILES),IC50 (AKT1 WT) [nM],IC50 (AKT2) [nM],AKT1 E17K IC50: Selectivity vs AKT1 WT (AKT1 E17K),AKT1 E17K IC50: Selectivity vs AKT2 (AKT1 E17K),IC50 (AKT1 E17K) [nM]
"Nc1ncccc1-c1nc2cccnc2n1-c1ccc(CNC(=O)c2cc(C=O)c(O)cn2)cc1 [Compound 45, N-(4-(2-(2-aminopyridin-3-yl)-3H-imidazo[4,5-b]pyridin-3-yl)benzyl)-4-formyl-5-hydroxypicolinamide]",> 500,> 500,2.7,>7.7,> 500
"Nc1ncccc1-c1nc2cccnc2n1-c1ccc(CNC(=O)c2cnc(O)c(C=O)c2)cc1 [Compound 46, N-(4-(2-(2-aminopyridin-3-yl)-3H-imidazo[4,5-b]pyridin-3-yl)benzyl)-5-formyl-6-hydroxynicotinamide]",> 500,> 500,–,–,> 500
"Nc1ncccc1-c1nc2cccnc2n1-c1ccc(CNC(=O)c2ccc(O)c(C=O)n2)cc1 [Compound 47, N-(4-(2-(2-aminopyridin-3-yl)-3H-imidazo[4,5-b]pyridin-3-yl)benzyl)-6-formyl-5-hydroxypicolinamide]",> 500,> 500,1.8,3.7,> 500
"Nc1ncccc1-c1nc2cccnc2n1-c1ccc(CNC(=O)Cc2ccc(C=O)c(NC(=O)C3CC3)c2)cc1 [Compound 48, N-(5-(2-((4-(2-(2-aminopyridin-3-yl)-3H-imidazo[4,5-b]pyridin-3-yl)benzyl)amino)-2-oxoethyl)-2-formylphenyl)cyclopropanecarboxamide]",100 to 500,> 500,8.5,120,< 100
"Nc1ncccc1-c1nc2ccc(-c3ccccc3)nc2n1-c1ccc(CNC(=O)c2cc(Br)c(O)c(C=O)c2)cc1 [Compound 50, N-({4-[2-(2-aminopyridin-3-yl)-5-phenylimidazo[4,5-b]pyridin-3-yl]phenyl}methyl)-3-bromo-5-formyl-4-hydroxybenzamide]",< 100,100 to 500,2.1,32,< 100
"CC(C)(O)C#Cc1ccc2nc(-c3cccnc3N)n(-c3ccc(CNC(=O)Cc4ccc(C=O)c(O)c4)cc3)c2n1 [Compound 51, N-(4-(2-(2-aminopyridin-3-yl)-5-(3-hydroxy-3-methylbut-1-yn-1-yl)-3H-imidazo[4,5-b]pyridin-3-yl)benzyl)-2-(4-formyl-3-hydroxyphenyl)acetamide]",100 to 500,> 500,3.8,90,< 100
"Nc1ncccc1-c1nc2ccc(-c3ccccc3F)nc2n1-c1ccc(CNC(=O)Cc2ccc(C=O)c(O)c2)cc1 [Compound 54, N-({4-[2-(2-aminopyridin-3-yl)-5-(2-fluorophenyl)imidazo[4,5-b]pyridin-3-yl]phenyl}methyl)-2-(4-formyl-3-hydroxyphenyl)acetamide]",< 100,100 to 500,1.8,64,< 100
"Nc1ncccc1-c1nc2ccc(-c3cccc(N4CCOCC4)c3)nc2n1-c1ccc(CNC(=O)Cc2ccc(C=O)c(O)c2)cc1 [Compound 55, N-({4-[2-(2-aminopyridin-3-yl)-5-[3-(morpholin-4-yl)phenyl]imidazo[4,5-b]pyridin-3-yl]phenyl}methyl)-2-(4-formyl-3-hydroxyphenyl)acetamide]",< 100,< 100,0.93,6.8,< 100
"CN(CCc1ccc(C=O)c(O)c1)C(=O)c1ccc(-n2c(-c3cccnc3N)nc3ccc(-c4ccccc4)nc32)cc1 [Compound 57, 4-[2-(2-aminopyridin-3-yl)-5-phenylimidazo[4,5-b]pyridin-3-yl]-N-[2-(4-formyl-3-hydroxyphenyl)ethyl]-N-methylbenzamide]",100 to 500,> 500,2.7,13,100 to 500
"Nc1ncccc1-c1nc2ccc(-c3ccccc3)nc2n1-c1ccc(CNC(=O)C2(c3ccc(C=O)c(O)c3F)CC2)cc1 [Compound 59, N-(4-(2-(2-aminopyridin-3-yl)-5-phenyl-3H-imidazo[4,5-b]pyridin-3-yl)benzyl)-1-(2-fluoro-4-formyl-3-hydroxyphenyl)cyclopropane-1-carboxamide]",> 500,> 500,5.7,39,100 to 500
"CC(C)(C(=O)NCc1ccc(-n2c(-c3cccnc3N)nc3ccc(-c4ccccc4)nc32)cc1)c1ccc(C=O)c(O)c1 [Compound 60, N-({4-[2-(2-aminopyridin-3-yl)-5-phenylimidazo[4,5-b]pyridin-3-yl]phenyl}methyl)-2-(4-formyl-3-hydroxyphenyl)-2-methylpropanamide]",100 to 500,> 500,8.2,45,< 100
"Nc1ncccc1-c1nc2ccc(-c3ccncc3)nc2n1-c1ccc(CNC(=O)Cc2ccc(C=O)c(O)c2)cc1 [Compound 61, N-({4-[2-(2-aminopyridin-3-yl)-5-(pyridin-4-yl)imidazo[4,5-b]pyridin-3-yl]phenyl}methyl)-2-(4-formyl-3-hydroxyphenyl)acetamide]",< 100,> 500,3,66,< 100
"Nc1ncccc1-c1nc2ccc(-c3ccccn3)nc2n1-c1ccc(CNC(=O)Cc2ccc(C=O)c(O)c2)cc1 [Compound 62, N-({4-[2-(2-aminopyridin-3-yl)-5-(pyridin-2-yl)imidazo[4,5-b]pyridin-3-yl]phenyl}methyl)-2-(4-formyl-3-hydroxyphenyl)acetamide]",< 100,> 500,2.7,47,< 100
"Nc1ncccc1-c1nc2ccc(-c3ccccc3)nc2n1-c1ccc(CNC(=O)Cc2ccc(C=O)c(O)c2Cl)cc1 [Compound 63, N-({4-[2-(2-aminopyridin-3-yl)-5-phenylimidazo[4,5-b]pyridin-3-yl]phenyl}methyl)-2-(2-chloro-4-formyl-3-hydroxyphenyl)acetamide]",< 100,100 to 500,1.2,8.3,< 100
"CN(Cc1ccc(-n2c(-c3cccnc3N)nc3ccc(-c4ccccc4)nc32)cc1)C(=O)Cc1ccc(C=O)c(O)c1 [Compound 64, N-(4-(2-(2-aminopyridin-3-yl)-5-phenyl-3H-imidazo[4,5-b]pyridin-3-yl)benzyl)-2-(4-formyl-3-hydroxyphenyl)-N-methylacetamide]",< 100,100 to 500,0.5,2,< 100
"Nc1ncccc1-c1nc2ccc(-c3ccccc3)nc2n1-c1ccc(CNC(=O)C(F)c2ccc(C=O)c(O)c2)cc1 (stereo not drawn) [Compound 65, N-({4-[2-(2-aminopyridin-3-yl)-5-phenylimidazo[4,5-b]pyridin-3-yl]phenyl}methyl)-2-fluoro-2-(4-formyl-3-hydroxyphenyl)acetamide]",< 100,100 to 500,1.2,37,< 100
